# PubChem BioAssay AID296 (DTP/NCI, 2004)
# “And” between values parts separate entries of the source, which are not always exact repeats. Equal values may be shown once. Inconclusive results are not listed. Where a SMILES comes first, the peptide text is derived from it. The star is where a group is joined. Trt = c1ccc(C(c2ccccc2)(c2ccccc2)*)cc1; Cbz = O=C(OCc1ccccc1)*
# Test system: MX-1 breast xenograft, nude mice, tumor weight T/C
# Test: NCI In Vivo Anticancer Drug Screen. Data for tumor model Human Mammary Carcinoma MX-1 Xenograft (intrarenal inoculation) in NU/NU Swiss (nude) mice
# Conditions: endpoint: mean tumor weight change, higher = larger tumour
# Procedure, shortened: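 Read-out: treated (T) over vehicle control (C) ratio of survival or tumor size. Dosing in animals carrying the transplanted tumor.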
# [1] = dose: 300.0 mg/kg/injection, schedule: Q04DX003 (sc), vehicle: saline with Tween-80
# [2] = dose: 600.0 mg/kg/injection, schedule: Q04DX003 (sc), vehicle: saline with Tween-80
# [3] = dose: 1200.0 mg/kg/injection, schedule: Q04DX003 (sc), vehicle: saline with Tween-80
# [4] = dose: 8.0 mg/kg/injection, schedule: Q01DX010 (sc), vehicle: saline
# [5] = dose: 75.0 mg/kg/injection, schedule: Q04DX003 (sc), vehicle: saline with Tween-80
# [6] = dose: 150.0 mg/kg/injection, schedule: Q04DX003 (sc), vehicle: saline with Tween-80
smiles,measurement,setting,value
F[B-](F)(F)F,T/C,"dose: 300.0 mg/kg/injection, schedule: Q04DX003 (sc), vehicle: gum acacia",106 % of control
same,T/C,"dose: 600.0 mg/kg/injection, schedule: Q04DX003 (sc), vehicle: gum acacia",104 % of control
same,T/C,"dose: 1200.0 mg/kg/injection, schedule: Q04DX003 (sc), vehicle: gum acacia",70 % of control
CCCCN(CCCC)C(Cl)=Nc1ccccc1,T/C,"dose: 800.0 mg/kg/injection, schedule: Q04DX003 (sc), vehicle: other",89 % of control
same,T/C,"dose: 1600.0 mg/kg/injection, schedule: Q04DX003 (sc), vehicle: other",124 % of control
CN(N=O)C(N)=O,T/C,"dose: 12.5 mg/kg/injection, schedule: Q01DX010 (sc), vehicle: saline with Tween-80",41 % of control
same,T/C,"dose: 12.5 mg/kg/injection, schedule: Q04DX003 (sc), vehicle: saline",83 % of control
same,T/C,"dose: 25.0 mg/kg/injection, schedule: Q04DX003 (sc), vehicle: saline",54 % of control
same,T/C,"dose: 25.0 mg/kg/injection, schedule: Q04DX003 (sc), vehicle: suspension in saline",54 % of control
same,T/C,"dose: 50.0 mg/kg/injection, schedule: Q04DX003 (sc), vehicle: saline with Tween-80",17 % of control
same,T/C,"dose: 50.0 mg/kg/injection, schedule: Q04DX003 (sc), vehicle: saline",6 % of control
same,T/C,"dose: 50.0 mg/kg/injection, schedule: Q04DX003 (sc), vehicle: suspension in saline",63 % of control
same,T/C,"dose: 100.0 mg/kg/injection, schedule: Q04DX003 (sc), vehicle: saline with Tween-80",-68 % of control
same,T/C,"dose: 100.0 mg/kg/injection, schedule: Q04DX003 (sc), vehicle: saline",-100 % of control
same,T/C,"dose: 100.0 mg/kg/injection, schedule: Q04DX003 (sc), vehicle: suspension in saline",17 % of control
NC(=S)N/N=C/c1ccc(OC(=O)COc2ccccc2)cn1,T/C,[1],101 % of control
same,T/C,[2],103 % of control
same,T/C,[3],76 % of control
C[CH2][Sn]([CH2]C)([CH2]C(=O)OC)[CH2]C(=O)OC,T/C,"dose: 12.5 mg/kg/injection, schedule: Q04DX003 (sc), vehicle: saline with Tween-80",79 % of control
same,T/C,"dose: 25.0 mg/kg/injection, schedule: Q04DX003 (sc), vehicle: saline with Tween-80",116 % of control
N#C[Se-].c1ccc([Te+](c2ccccc2)c2ccccc2)cc1,T/C,"dose: 3.75 mg/kg/injection, schedule: Q04DX003 (sc), vehicle: Klucel (hydroxypropylcellulose) (HPC)",101 % of control
same,T/C,"dose: 7.5 mg/kg/injection, schedule: Q04DX003 (sc), vehicle: Klucel (hydroxypropylcellulose) (HPC)",118 % of control
same,T/C,"dose: 30.0 mg/kg/injection, schedule: Q04DX003 (sc), vehicle: Klucel (hydroxypropylcellulose) (HPC)",75 % of control
N[C@H](C(=O)O)[C@@H]1CC(Cl)=NO1,T/C,"dose: 4.0 mg/kg/injection, schedule: Q01DX010 (sc), vehicle: suspension in saline",-87 % of control
same,T/C,"dose: 4.0 mg/kg/injection, schedule: Q02DX005 (sc), vehicle: saline",-33 % of control
same,T/C,"dose: 4.0 mg/kg/injection, schedule: Q04DX003 (sc), vehicle: saline",52 % of control
same,T/C,[4],-100 % of control and -89 % of control and -76 % of control
same,T/C,"dose: 8.0 mg/kg/injection, schedule: Q01DX010 (sc), vehicle: suspension in saline",-86 % of control
same,T/C,"dose: 8.0 mg/kg/injection, schedule: Q02DX005 (sc), vehicle: saline",-59 % of control
same,T/C,"dose: 8.0 mg/kg/injection, schedule: Q04DX003 (sc), vehicle: saline",25 % of control
same,T/C,"dose: 16.0 mg/kg/injection, schedule: Q01DX010 (sc), vehicle: suspension in saline",-82 % of control
same,T/C,"dose: 16.0 mg/kg/injection, schedule: Q02DX005 (sc), vehicle: saline",-31 % of control
same,T/C,"dose: 16.0 mg/kg/injection, schedule: Q04DX003 (sc), vehicle: saline",7 % of control
same,T/C,"dose: 32.0 mg/kg/injection, schedule: Q01DX010 (sc), vehicle: suspension in saline",-90 % of control
same,T/C,"dose: 32.0 mg/kg/injection, schedule: Q04DX003 (sc), vehicle: saline",5 % of control
COC1=C(C)C(=O)C2=C(C1=O)C1C3CC4=C(C(=O)C(OC)=C(C)C4=O)C(CNC(=O)C(C)=O)N3C(C#N)C(C2)N1C (centres undefined),T/C,"dose: 1.0 mg/kg/injection, schedule: Q04DX003 (sc), vehicle: Klucel (hydroxypropylcellulose) (HPC)",104 % of control
same,T/C,"dose: 4.0 mg/kg/injection, schedule: Q04DX003 (sc), vehicle: Klucel (hydroxypropylcellulose) (HPC)",69 % of control
COC(=O)C(CSC(c1ccccc1)(c1ccccc1)c1ccccc1)NC(=O)C(CC(N)=O)NC(=O)OCc1ccccc1 (stereo not drawn) (Cbz-Asn-Cys(Trt)-OMe; configuration not given here),T/C,"dose: 300.0 mg/kg/injection, schedule: Q04DX003 (sc), vehicle: distilled water + Tween-80",97 % of control
same,T/C,"dose: 600.0 mg/kg/injection, schedule: Q04DX003 (sc), vehicle: distilled water + Tween-80",77 % of control
same,T/C,"dose: 1200.0 mg/kg/injection, schedule: Q04DX003 (sc), vehicle: distilled water + Tween-80",78 % of control
same,T/C,"dose: 2400.0 mg/kg/injection, schedule: Q04DX003 (sc), vehicle: distilled water + Tween-80",94 % of control
CN=C(N)N/N=C(\C)c1ccc2oc3ccc(/C(C)=N/NC(N)=NC)cc3c2c1,T/C,[5],72 % of control
same,T/C,[6],86 % of control
same,T/C,[1],80 % of control
CCN(CC)CCCNc1nccc2c(C)c3[nH]c4ccncc4c3cc12,T/C,"dose: 5.0 mg/kg/injection, schedule: Q01DX010 (sc), vehicle: other",166 % of control
same,T/C,"dose: 10.0 mg/kg/injection, schedule: Q01DX010 (sc), vehicle: other",88 % of control
CCOC(OCC)C(=O)OCC(=O)[C@]1(O)Cc2c(O)c3c(c(O)c2[C@@H](OC2CC(N)C(O)C(C)O2)C1)C(=O)c1c(OC)cccc1C3=O (some centres undefined),T/C,"dose: 4.0 mg/kg/injection, schedule: Q01DX010 (sc), vehicle: water",27 % of control and 44 % of control
O=CC(=O)c1ccc(O)cc1,T/C,"dose: 150.0 mg/kg/injection, schedule: Q04DX003 (sc), vehicle: saline",95 % of control
same,T/C,"dose: 300.0 mg/kg/injection, schedule: Q04DX003 (sc), vehicle: saline",69 % of control
Nc1ccc2c(c1)CN1C(=O)c3ccccc3C1=N2,T/C,[1],203 % of control
same,T/C,[2],168 % of control
same,T/C,[3],76 % of control
CCN(CC)c1ccc2[nH]c3c(C(N)=O)cc(=O)c(=O)c=3oc2c1,T/C,[6],88 % of control
same,T/C,[1],84 % of control
same,T/C,[3],101 % of control
CCC(=O)N(C)[C@@H](C)C(=O)O[C@H]1CC(=O)N(C)c2cc(cc(OC)c2Cl)C/C(C)=C/C=C[C@@H](OC)[C@@]2(O)C[C@H](OC(=O)N2)[C@@H](C)[C@@H]2O[C@@]12C,T/C,"dose: 0.07 mg/kg/injection, schedule: Q04DX003 (sc), vehicle: saline + alcohol",117 % of control
same,T/C,"dose: 0.13 mg/kg/injection, schedule: Q04DX003 (sc), vehicle: saline + alcohol",98 % of control
same,T/C,"dose: 0.25 mg/kg/injection, schedule: Q04DX003 (sc), vehicle: saline + alcohol",88 % of control
same,T/C,"dose: 0.5 mg/kg/injection, schedule: Q04DX003 (sc), vehicle: saline + alcohol",7 % of control
COC1C(N)C(OC2C(Oc3cccc4c(O)c5c(=O)oc6ccc(C)c7c(=O)oc(c34)c5c67)OC(C)C(O)C2(C)O)OC(C)C1O (centres undefined),T/C,"dose: 2.5 mg/kg/injection, schedule: Q04DX003 (ip), vehicle: lactic acid",51 % of control
same,T/C,"dose: 5.0 mg/kg/injection, schedule: Q04DX003 (ip), vehicle: lactic acid",49 % of control
same,T/C,"dose: 10.0 mg/kg/injection, schedule: Q04DX003 (ip), vehicle: lactic acid",9 % of control
C=CC(=O)NCNC(=O)C=C,T/C,"dose: 50.0 mg/kg/injection, schedule: Q01DX010 (sc), vehicle: saline",82 % of control
same,T/C,"dose: 100.0 mg/kg/injection, schedule: Q01DX010 (sc), vehicle: saline",91 % of control
O=C1NC(=O)/C(=C/C=C/c2ccccc2)S1,T/C,[1],111 % of control
same,T/C,[2],98 % of control
same,T/C,[3],84 % of control
same,T/C,"dose: 2400.0 mg/kg/injection, schedule: Q04DX003 (sc), vehicle: saline with Tween-80",66 % of control
CCC1CCCCN1C(=S)N/N=C(\C)c1ccccn1 (centres undefined),T/C,"dose: 18.75 mg/kg/injection, schedule: Q04DX003 (sc), vehicle: saline with Tween-80",53 % of control
same,T/C,"dose: 37.5 mg/kg/injection, schedule: Q04DX003 (sc), vehicle: saline with Tween-80",97 % of control
same,T/C,[5],82 % of control
COc1cc2c(cc1O)N=C[C@@H]1CCC(O)N1C2=O (mixture of isomers),T/C,"dose: 1.0 mg/kg/injection, schedule: Q01DX010 (sc), vehicle: saline",295 % of control
same,T/C,"dose: 2.0 mg/kg/injection, schedule: Q01DX010 (sc), vehicle: saline",197 % of control
same,T/C,"dose: 4.0 mg/kg/injection, schedule: Q01DX010 (sc), vehicle: saline",214 % of control
same,T/C,[4],187 % of control
O=C1C=C(C2OC(CO)C(O)C2O)C(=O)N1 (centres undefined),T/C,"dose: 6.25 mg/kg/injection, schedule: Q01DX010 (sc), vehicle: saline",79 % of control
same,T/C,"dose: 12.5 mg/kg/injection, schedule: Q01DX010 (sc), vehicle: saline",123 % of control
CC(=O)Nc1ccc(S(=O)(=O)CO)cc1,T/C,[1],121 % of control
same,T/C,[2],85 % of control
